{
  "source": "ChEMBL document CHEMBL4354807",
  "about": "“Natural Product Albiziabioside A Conjugated with Pyruvate Dehydrogenase Kinase Inhibitor Dichloroacetate To Induce Apoptosis-Ferroptosis-M2-TAMs Polarization for Combined Cancer Therapy” (J Med Chem, 2019)",
  "key": {"MCF7 [1]": {"test_system": "MCF7", "assay": "Induction of apoptosis in human MCF7 cells assessed as necrotic cells at 2 uM after 24 hrs by Annexin V-FITC/propidium iodide staining-based flow cytometric analysis (reference value: 0.10 %)", "type": "functional"}, "4T1 [2]": {"test_system": "4T1", "assay": "Inhibition of glycolysis in mouse 4T1 cells expressing PDK assessed as reduction in intracellular lactate level at 2 uM after 6 hrs by microplate reader assay", "type": "functional, cell-based"}, "HCT-116 [3]": {"test_system": "HCT-116", "assay": "Anticancer activity against human HCT116 cells expressing PDK assessed as reduction in cell viability after 72 hrs by MTT assay", "type": "functional, cell-based", "conditions": "HCT-116, 72 h"}, "Mus musculus [4]": {"test_system": "Mus musculus", "assay": "Modulation of tumor immunosuppressive activity in BALB/c mouse xenografted with mouse 4T1 cells assessed as increase in IL12 expression in tumor administered intratumorally every other day for 14 days measured at 2 days post-last dose by ELISA", "type": "functional, organism-based"}, "Mus musculus [5]": {"test_system": "Mus musculus", "assay": "Modulation of tumor immunosuppressive activity in BALB/c mouse xenografted with mouse 4T1 cells assessed as increase in TNFalpha expression in serum administered intratumorally every other day for 14 days measured at 2 days post-last dose by ELISA", "type": "functional, organism-based"}, "[6]": {"assay": "Selectivity index, ratio IC50 for cytotoxicity against human LO2 cells assessed as reduction in cell viability after 72 hrs by MTT assay to IC50 for anticancer activity against human HCT116 cells assessed as reduction in cell viability after 72 hrs by MTT assay", "type": "toxicity, cell-based", "conditions": "LO2 cells versus HCT116 cells, read-out: Ratio IC50"}, "[7]": {"molecular_target": "[Pyruvate dehydrogenase (acetyl-transferring)] kinase isozyme 1, mitochondrial (Homo sapiens) (UniProt Q15118)", "assay": "Inhibition of PDK1 (unknown origin) expressed in human MCF7 cells using PDK tide as substrate measured after 90 mins in presence of ATP by ADP-Glo luminescent kinase assay"}, "MCF7 [8]": {"test_system": "MCF7", "assay": "Downregulation of GPX4 expression in human MCF7 cells at 2 uM after 48 hrs by Western blot analysis", "type": "functional, cell-based"}, "L02": {"test_system": "L02", "assay": "Cytotoxicity against human LO2 cells assessed as reduction in cell viability after 72 hrs by MTT assay", "type": "cell-based", "conditions": "L02, 72 h"}, "[9]": {"assay": "Cytotoxicity against human HBMEC cells assessed as reduction in cell viability after 72 hrs by MTT assay", "type": "cell-based"}, "Mus musculus [10]": {"test_system": "Mus musculus", "assay": "Modulation of tumor immunosuppressive activity in BALB/c mouse xenografted with mouse 4T1 cells assessed as increase in IL12 expression in serum administered intratumorally every other day for 14 days measured at 2 days post-last dose by ELISA", "type": "functional, organism-based"}, "MCF7 [11]": {"test_system": "MCF7", "assay": "Induction of metabolic reversal from aerobic glycolysis to oxidative phosphorylation in human MCF7 cells assessed as […] at 2 uM pretreated for 3 hrs followed by oligomycin A addition after 25 mins followed by subsequent addition of FCCP after 50 mins followed by antimycin/rotenone addition after 80 mins by seahorse XF24 extracellular flux analyzer assay", "type": "functional, cell-based"}, "[12]": {"assay": "Selectivity index, ratio IC50 for cytotoxicity against human HBMEC cells assessed as reduction in cell viability after 72 hrs by MTT assay to IC50 for anticancer activity against human A375 cells assessed as reduction in cell viability after 72 hrs by MTT assay"}, "MCF7 [13]": {"test_system": "MCF7", "assay": "Induction of mitochondrial dysfunction in human MCF7 cells assessed as cell population with mitochondrial membrane potential collapse at 2 uM after 24 hrs by JC1 staining-based FACScalibur flow cytometry analysis (reference value: 2.74 %)", "type": "functional"}, "MCF7 [14]": {"test_system": "MCF7", "assay": "Downregulation of PDK expression in human MCF7 cells after 48 hrs by Western blot analysis", "type": "functional, cell-based"}, "MCF7 [15]": {"test_system": "MCF7", "assay": "Induction of ferroptosis in human MCF7 cells assessed as reduction in cellular GSH level at 2 uM after 24 hrs by microplate reader assay", "type": "functional, cell-based"}, "HCT-116 [16]": {"test_system": "HCT-116", "assay": "Synergistic anticancer activity against human HCT116 cells expressing assessed as combination index after 72 hrs by MTT assay", "type": "functional"}, "[17]": {"assay": "Toxicity in BALB/c nude mouse xenografted with human MCF7 cells assessed as mouse death at 2 mg/kg, iv administered every 2 days for 2 weeks measured after 14 days", "type": "organism-based", "conditions": "in vivo, 336 h"}, "[18]": {"assay": "Selectivity index, ratio IC50 for cytotoxicity against human HBMEC cells assessed as reduction in cell viability after 72 hrs by MTT assay to IC50 for anticancer activity against human HCT116 cells assessed as reduction in cell viability after 72 hrs by MTT assay"}, "MCF7 [19]": {"test_system": "MCF7", "assay": "Induction of apoptosis in human MCF7 cells assessed as early apoptotic cells at 2 uM after 24 hrs by Annexin V-FITC/propidium iodide staining-based flow cytometric analysis (reference value: 3.53 %)", "type": "functional"}, "4T1 [20]": {"test_system": "4T1", "assay": "Synergistic anticancer activity against mouse 4T1 cells expressing assessed as combination index after 72 hrs by MTT assay", "type": "functional"}, "MCF7 [21]": {"test_system": "MCF7", "assay": "Induction of mitochondrial dysfunction in human MCF7 cells assessed as cell population with intact mitochondrial membrane potential at 2 uM after 24 hrs by JC1 staining-based FACScalibur flow cytometry analysis (reference value: 97%)", "type": "functional"}, "[22]": {"assay": "Toxicity in BALB/c nude mouse xenografted with human MCF7 cells assessed as effect on ALT level in blood at 2 mg/kg, iv administered every 2 days for 2 weeks measured after 14 days", "type": "organism-based", "conditions": "in vivo, 336 h"}, "4T1 [23]": {"test_system": "4T1", "assay": "Reversal of immunosuppression against mouse 4T1 cells implanted in BALB/c mouse assessed as decrease in weight of distal tumor at 2 mg/kg administered intratumorally every 2 days for 2 weeks measured after 14 days", "type": "functional, organism-based"}, "4T1 [24]": {"test_system": "4T1", "assay": "Induction of M2-TAM polarization in mouse 4T1 cells assessed as decrease in Arg1 protein level at 2 uM after 48 hrs by Western blot analysis relative to control", "type": "functional"}, "[25]": {"assay": "Toxicity in BALB/c nude mouse xenografted with human MCF7 cells assessed as effect on ALP level in blood at 2 mg/kg, iv administered every 2 days for 2 weeks measured after 14 days", "type": "organism-based", "conditions": "in vivo, 336 h"}, "MCF7 [26]": {"test_system": "MCF7", "assay": "Inhibition of glycolysis in human MCF7 cells assessed as reduction in extracellular lactate level at 2 uM after 6 hrs by microplate reader assay", "type": "functional, cell-based"}, "Mus musculus [27]": {"test_system": "Mus musculus", "assay": "Modulation of tumor immunosuppressive activity in BALB/c mouse xenografted with mouse 4T1 cells assessed as decrease in IL10 expression in tumor administered intratumorally every other day for 14 days measured at 2 days post-last dose by ELISA", "type": "functional, organism-based"}, "MCF7 [28]": {"test_system": "MCF7", "assay": "Induction of apoptosis in human MCF7 cells assessed as upregulation of cytochrome C expression at 2 uM after 48 hrs by Western blot analysis relative to control", "type": "functional"}, "[29]": {"molecular_target": "[Pyruvate dehydrogenase (acetyl-transferring)] kinase isozyme 1, mitochondrial (Homo sapiens) (UniProt Q15118)", "assay": "Inhibition of PDK1 (unknown origin) in PBS buffer using PDK tide as substrate at pH 7.4 measured after 90 mins in presence of ATP by ADP-Glo luminescent kinase assay"}, "[30]": {"assay": "Toxicity in BALB/c nude mouse xenografted with human MCF7 cells assessed as effect on blood urea nitrogen at 2 mg/kg, iv administered every 2 days for 2 weeks measured after 14 days", "type": "organism-based", "conditions": "in vivo, 336 h"}, "Mus musculus [31]": {"test_system": "Mus musculus", "assay": "Modulation of tumor immunosuppressive activity in BALB/c mouse xenografted with mouse 4T1 cells assessed as increase in IFNgamma expression in serum administered intratumorally every other day for 14 days measured at 2 days post-last dose by ELISA", "type": "functional, organism-based"}, "MCF7 [32]": {"test_system": "MCF7", "assay": "Induction of metabolic reversal from aerobic glycolysis to oxidative phosphorylation in human MCF7 cells assessed as effect on extracellular acidification rate at 2 uM pretreated for 4 hrs followed by glucose addition after 25 mins followed by subsequent addition of oligomycin A after 50 mins followed by 2-DG addition after 80 mins by seahorse XF24 extracellular flux analyzer assay", "type": "functional, cell-based"}},
  "note": "Calls of active or inactive are those of the source. No cut-off for these calls is given here.",
  "data": [
    {"compound": "CC1(C)CC[C@]2(C(=O)O)CC[C@]3(C)C(=CC[C@@H]4[C@@]5(C)CC[C@H](O[C@@H]6O[C@H](CO[C@@H]7OC[C@H](O)[C@H](O)[C@H]7O)[C@@H](O)[C@H](O)[C@H]6NC(=O)C(Cl)Cl)C(C)(C)[C@@H]5CC[C@]43C)[C@@H]2C1", "values": [
      {"measurement": "Activity", "setting": "MCF7 [1]", "result": 4.86, "unit": "%"},
      {"measurement": "inhibition", "setting": "4T1 [2]", "result": "Active"},
      {"measurement": "IC50", "setting": "HCT-116 [3]", "result": 3.87, "unit": "µM"},
      {"measurement": "Activity", "setting": "Mus musculus [4]", "result": "Active"},
      {"measurement": "Activity", "setting": "Mus musculus [5]", "result": "Active"},
      {"measurement": "selectivity ratio at 72 h", "setting": "[6]", "result": 12.7},
      {"measurement": "inhibition", "setting": "[7]", "result": "Active"},
      {"measurement": "Activity", "setting": "MCF7 [8]", "result": "Active"},
      {"measurement": "IC50", "setting": "L02", "result": 53.1, "unit": "µM"},
      {"measurement": "IC50", "setting": "[9]", "result": 38.2, "unit": "µM"},
      {"measurement": "Activity", "setting": "Mus musculus [10]", "result": "Active"},
      {"measurement": "Activity", "setting": "MCF7 [11]", "result": "inactive"},
      {"measurement": "Ratio IC50", "setting": "[12]", "result": 10.11},
      {"measurement": "Activity", "setting": "MCF7 [13]", "result": 46.39, "unit": "%"},
      {"measurement": "Activity", "setting": "MCF7 [14]", "result": "Dose-dependent effect"},
      {"measurement": "Activity", "setting": "MCF7 [15]", "result": "Active"},
      {"measurement": "CI", "setting": "HCT-116 [16]", "result": 0.22},
      {"measurement": "Activity", "setting": "[17]", "result": "Non-Toxic"},
      {"measurement": "Ratio IC50", "setting": "[18]", "result": 9.87},
      {"measurement": "Activity", "setting": "MCF7 [19]", "result": 25.16, "unit": "%"},
      {"measurement": "CI", "setting": "4T1 [20]", "result": 0.09},
      {"measurement": "Activity", "setting": "MCF7 [21]", "result": 53.38, "unit": "%"},
      {"measurement": "Activity", "setting": "[22]", "result": "Non-Toxic"},
      {"measurement": "Activity", "setting": "4T1 [23]", "result": "Active"},
      {"measurement": "fold change (FC)", "setting": "4T1 [24]", "result": 2.1},
      {"measurement": "Activity", "setting": "[25]", "result": "Non-Toxic"},
      {"measurement": "inhibition", "setting": "MCF7 [26]", "result": "Active"},
      {"measurement": "Activity", "setting": "Mus musculus [27]", "result": "Active"},
      {"measurement": "fold change (FC)", "setting": "MCF7 [28]", "result": 4.4},
      {"measurement": "inhibition", "setting": "[29]", "result": "inactive"},
      {"measurement": "Activity", "setting": "[30]", "result": "Non-Toxic"},
      {"measurement": "Activity", "setting": "Mus musculus [31]", "result": "Active"},
      {"measurement": "Activity", "setting": "MCF7 [32]", "result": "Active"}
    ]}
  ]
}
